Data as given in ChEMBL document CHEMBL1201862, “PubChem BioAssay data set” (2004).
Where “and” joins values, the source holds several entries; their conditions need not be identical. Equal entries are not always repeated.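 How tested: cells in 96-well plates exposed to compound for 48 hours at five concentrations. GI50 is the concentration that inhibits growth by half.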 Calls of active or inactive are those of the source. Rule as the data show it: active = GI50 up to about 1.1 µM and inactive = higher.

Legend:
Experiment in all cases: NCI anticancer screen, dose series, 48 h
BT-549 = test system: BT-549
OVCAR-8 = test system: OVCAR-8
DU-145 = test system: DU-145
EKVX = test system: EKVX
M14 = test system: M14
NCI-H23 = test system: NCI-H23
SK-MEL-2 = test system: SK-MEL-2
SN12C = test system: SN12C
OVCAR-3 = test system: OVCAR-3
OVCAR-5 = test system: OVCAR-5
MOLT-4 = test system: MOLT-4
K562 = test system: K562
PC-3 = test system: PC-3
MDA-MB-435 = test system: MDA-MB-435
Malme-3M = test system: Malme-3M
HCC 2998 = test system: HCC 2998
U-251 = test system: U-251
TK-10 = test system: TK-10
786-0 = test system: 786-0
DMS-114 = test system: DMS-114

Structure (SMILES)	GI50 (BT-549)	GI50 (OVCAR-8)	GI50 (DU-145)	GI50 (EKVX)	GI50 (M14)	GI50 (NCI-H23)	GI50 (SK-MEL-2)	GI50 (SN12C)	GI50 (OVCAR-3)	GI50 (OVCAR-5)	GI50 (MOLT-4)	GI50 (K562)	GI50 (PC-3)	GI50 (MDA-MB-435)	GI50 (Malme-3M)	GI50 (HCC 2998)	GI50 (U-251)	GI50 (TK-10)	GI50 (786-0)	GI50 (DMS-114)
COC(=O)CCC(C)C1CCC2C3C(C[C@H](OC(C)=O)[C@]12C)[C@@]1(C)CCC2(C[C@H]1C[C@H]3OC(C)=O)OOC1(CC[C@]3(C)C4C[C@H](OC(C)=O)[C@]5(C)C(C(C)CCC(=O)OC)CCC5C4[C@H](OC(C)=O)C[C@@H]3C1)OO2 (some centres not stated)	97.3 µM (inactive)	> 100 µM (inactive)	73.1 µM (inactive)	> 100 µM (inactive)	> 100 µM (inactive)	84.7 µM (inactive)	> 100 µM (inactive)	83.2 µM (inactive)	> 100 µM (inactive)	> 100 µM (inactive)	48.4 µM (inactive)	> 100 µM (inactive)	> 100 µM (inactive)	> 100 µM (inactive)	> 100 µM (inactive)	> 100 µM (inactive)	45.1 µM (inactive)	> 100 µM (inactive)	> 100 µM (inactive)	
CN(C)CCC(=O)/C=C\c1ccccc1		18.1 µM (inactive)		18.7 µM (inactive)	16.7 µM (inactive)			16.6 µM (inactive)	18.2 µM (inactive)	20.9 µM (inactive)	13.5 µM (inactive)	13.2 µM (inactive)			17.1 µM (inactive)		17.5 µM (inactive)	18.5 µM (inactive)	16.3 µM (inactive)	18.2 µM (inactive)
OC1COC(n2c3ccc(Br)cc3c3ccc4c5ccccc5[nH]c4c32)C(O)C1O (configuration not stated)	1.1 µM (active)	3.65 µM (inactive)	3.66 µM (inactive)	4.59 µM (inactive)	3.12 µM (inactive)	3.02 µM (inactive)	0.658 µM (active)	4.84 µM (inactive)	3.37 µM (inactive)	2.92 µM (inactive)	3.05 µM (inactive)	2.29 µM (inactive)	2.21 µM (inactive)	3.89 µM (inactive)	3.88 µM (inactive)	2.67 µM (inactive)	5.01 µM (inactive)	4.28 µM (inactive)	3.96 µM (inactive)	
CC1(C)N=[N+]([O-])C1(C)C	> 100 µM (inactive)	> 100 µM (inactive)	> 100 µM (inactive)	> 100 µM (inactive)	> 100 µM (inactive)	> 100 µM (inactive)	> 100 µM (inactive)	> 100 µM (inactive)	> 100 µM (inactive)	> 100 µM (inactive)	> 100 µM (inactive)	> 100 µM (inactive)	> 100 µM (inactive)	> 100 µM (inactive)	> 100 µM (inactive)	> 100 µM (inactive)	> 100 µM (inactive)	> 100 µM (inactive)	> 100 µM (inactive)	
Cc1nc2c(Br)cc(Br)cc2c(=O)n1-c1ccccc1NC1OC(CO)C(O)C(O)C1O (configuration not stated)	> 100 µM (inactive)	> 100 µM (inactive)	> 100 µM (inactive)	> 100 µM (inactive)	> 100 µM (inactive)	> 100 µM (inactive)	> 100 µM (inactive)	> 100 µM (inactive)	> 100 µM (inactive)	> 100 µM (inactive)	> 100 µM (inactive) and 79.1 µM (inactive)	> 100 µM (inactive)	> 100 µM (inactive)	> 100 µM (inactive)	> 100 µM (inactive)	> 100 µM (inactive)	> 100 µM (inactive)	> 100 µM (inactive)	> 100 µM (inactive)	
CNC(=S)/C(=N\Nc1[nH]cnc1C(N)=O)C(N)=S	29.9 µM (inactive)	1.11 µM (active)	1.2 µM (inactive)	22.3 µM (inactive)	1.1 µM (active)	17.3 µM (inactive)	0.875 µM (active)	2.44 µM (inactive)	6.43 µM (inactive)	> 31.6 µM (inactive)	0.711 µM (active)	0.444 µM (active)	5.52 µM (inactive)	7.03 µM (inactive)	1.1 µM (active)	1.99 µM (inactive)	30.3 µM (inactive)	1.24 µM (inactive)	7.71 µM (inactive)	
NCS(=O)(=O)O	> 100 µM (inactive)	> 100 µM (inactive)	> 100 µM (inactive)	> 100 µM (inactive)	> 100 µM (inactive)	> 100 µM (inactive)	> 100 µM (inactive)	> 100 µM (inactive)	> 100 µM (inactive)	> 100 µM (inactive)	> 100 µM (inactive)	> 100 µM (inactive)	> 100 µM (inactive)	> 100 µM (inactive)	> 100 µM (inactive)	> 100 µM (inactive)	> 100 µM (inactive)	> 100 µM (inactive)	> 100 µM (inactive)	
COC(=O)C[C@H]1CCC2(OCCO2)[C@]1(C)C(=O)OC		> 100 µM (inactive)		> 100 µM (inactive)	> 100 µM (inactive)	> 100 µM (inactive)	> 100 µM (inactive)	> 100 µM (inactive)	> 100 µM (inactive)	> 100 µM (inactive)	> 100 µM (inactive)	> 100 µM (inactive)			> 100 µM (inactive)		> 100 µM (inactive)	> 100 µM (inactive)	> 100 µM (inactive)	> 100 µM (inactive)
